Measurements taken from patent US7595401B2, “Therapeutic compounds and their use in cancer” (Myriad Pharmaceuticals, Inc., priority 2006, dated 2009).

system: purified human Hsp90; test: Binding Assay: fluorescence polarization with BODIPY-labeled geldanamycin; settings: 5 μM compound, BODIPY-GM 10 nM, Hsp90 30 nM
Outline: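 Compounds in 2% DMSO final compete with 10 nM BODIPY-GM for 30 nM purified human Hsp90, incubated overnight at room temperature in pH 7.3 HEPES buffer containing Na2MoO4 and DTT. Polarization (mP, ex/em 485/530) normalized to DMSO gives percent inhibition; autofluorescence-confounded data excluded.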

SMILES	% Inhibition at 5 μM Compound Concentration [%]
Nc1ncn(CCc2ccccc2C(F)(F)F)c2nc(Sc3cc4c(cc3Br)OCO4)nc1-2 [Example 291, 8-[(6-Bromo-1,3-benzodioxol-5-yl)thio]-3-{2-[2-(trifluoromethyl)phenyl]ethyl}-3H-purin-6-amine]	0.0
Nc1ncn(CCc2ccccc2)c2nc(Sc3ccc4c(c3)OC(F)(F)O4)nc1-2 [Example 293, 8-[(2,2-Difluoro-1,3-benzodioxol-5-yl)thio]-3-(2-phenylethyl)-3H-purin-6-amine]	0.0
Nc1ncn(CCc2ccccc2Cl)c2nc(Sc3ccc4c(c3)OC(F)(F)O4)nc1-2 [Example 295, 3-[2-(2-Chlorophenyl)ethyl]-8-[(2,2-difluoro-1,3-benzodioxol-5-yl)thio]-3H-purin-6-amine]	0.0
COc1ccc(CCn2cnc(N)c3nc(Sc4cc5c(cc4Br)OCO5)nc2-3)cc1OC [Example 297, 8-[(6-Bromo-1,3-benzodioxol-5-yl)thio]-3-[2-(3,4-dimethoxyphenyl)ethyl]-3H-purin-6-amine]	8.0
COc1cccc(Sc2nc3c(N)ncn(CC(=O)c4ccccc4)c-3n2)c1 [Example 299, 2-{6-Amino-8-[(3-methoxyphenyl)thio]-3H-purin-3-yl}-1-phenylethanone]	0.0
Nc1ncn(CCc2ccc(O)cc2)c2nc(Sc3cc4c(cc3Br)OCO4)nc1-2 [Example 301, 4-(2-{6-Amino-8-[(6-bromo-1,3-benzodioxol-5-yl)thio]-3H-purin-3-yl}ethyl)phenol]	5.0
Nc1ncn(CCc2ccc3ccccc3c2)c2nc(Sc3cc4c(cc3Br)OCO4)nc1-2 [Example 303, 8-[(6-Bromo-1,3-benzodioxol-5-yl)thio]-3-[2-(2-naphthyl)ethyl]-3H-purin-6-amine]	21.0
COc1ccc(C#N)cc1Sc1nc2c(N)ncn(CCc3ccccc3)c-2n1 [Example 305, 3-{[6-Amino-3-(2-phenylethyl)-3H-purin-8-yl]thio}-4-methoxybenzonitrile]	29.0
COc1ccc(C#N)cc1Sc1nc2c(N)ncn(CCc3ccccc3Cl)c-2n1 [Example 307, 3-({6-Amino-3-[2-(2-chlorophenyl)ethyl]-3H-purin-8-yl}thio)-4-methoxybenzonitrile]	40.0
COc1cccc(CCn2cnc(N)c3nc(Sc4cc5c(cc4Br)OCO5)nc2-3)c1 [Example 309, 8-[(6-Bromo-1,3-benzodioxol-5-yl)thio]-3-[2-(3-methoxyphenyl)ethyl]-3H-purin-6-amine]	25.0
COc1ccc(I)c(Sc2nc3c(N)ncn(CCc4ccc(I)cc4)c-3n2)c1 [Example 311, 8-[(2-Iodo-5-methoxyphenyl)thio]-3-[2-(4-iodophenyl)ethyl]-3H-purin-6-amine]	0.0
COc1ccc(F)cc1Sc1nc2c(N)ncn(CCc3ccccc3)c-2n1 [Example 313, 8-[(5-Fluoro-2-methoxyphenyl)thio]-3-(2-phenylethyl)-3H-purin-6-amine]	3.0
COc1ccc(C)cc1Sc1nc2c(N)ncn(CCc3ccccc3)c-2n1 [Example 315, 8-[(2-Methoxy-5-methylphenyl)thio]-3-(2-phenylethyl)-3H-purin-6-amine]	21.0
COc1ccc(F)cc1Sc1nc2c(N)ncn(CCc3ccccc3Cl)c-2n1 [Example 317, 3-[2-(2-Chlorophenyl)ethyl]-8-[(5-fluoro-2-methoxyphenyl)thio]-3H-purin-6-amine]	0.0
COc1ccc([N+](=O)[O-])cc1Sc1nc2c(N)ncn(CCc3ccccc3Cl)c-2n1 [Example 319, 3-[2-(2-Chlorophenyl)ethyl]-8-[(2-methoxy-5-nitrophenyl)thio]-3H-purin-6-amine]	27.0
N#Cc1cc2c(cc1Sc1nc3c(N)ncn(CCc4ccccc4)c-3n1)OCO2 [Example 321, 6-{[6-Amino-3-(2-phenylethyl)-3H-purin-8-yl]thio}-1,3-benzodioxole-5-carbonitrile]	49.0
COc1ccc(I)c(Sc2nc3c(N)ncn(CCc4ccccc4)c-3n2)c1 [Example 323, 8-[(2-Iodo-5-methoxyphenyl)thio]-3-(2-phenylethyl)-3H-purin-6-amine]	0.0
COc1ccc(C)cc1Sc1nc2c(N)ncn(CCc3ccccc3Cl)c-2n1 [Example 325, 3-[2-(2-Chlorophenyl)ethyl]-8-[(2-methoxy-5-methylphenyl)thio]-3H-purin-6-amine]	0.0
N#Cc1cc2c(cc1Sc1nc3c(N)ncn(CCc4ccccc4Cl)c-3n1)OCO2 [Example 327, 6-({6-Amino-3-[2-(2-chlorophenyl)ethyl]-3H-purin-8-yl}thio)-1,3-benzodioxole-5-carbonitrile]	33.0
Nc1ncnc2c1nc(Sc1cc(OC(F)(F)F)ccc1OC1CCCC1)n2CCc1ccccc1Cl [Example 329, 9-[2-(2-Chlorophenyl)ethyl]-8-{[2-(cyclopentyloxy)-5-(trifluoromethoxy)phenyl]thio}-9H-purin-6-amine]	25.0

same assay, conditions: BODIPY-GM 10 nM, Hsp90 30 nM

SMILES	IC50 [nM]
Nc1ncnc2c1nc(Sc1cc3c(cc1Br)OCO3)n2CCc1ccccc1C(F)(F)F [Example 290, 8-[(6-Bromo-1,3-benzodioxol-5-yl)thio]-9-{2-[2-(trifluoromethyl)phenyl]ethyl}-9H-purin-6-amine]	70
Nc1ncnc2c1nc(Sc1ccc3c(c1)OC(F)(F)O3)n2CCc1ccccc1 [Example 292, 8-[(2,2-Difluoro-1,3-benzodioxol-5-yl)thio]-9-(2-phenylethyl)-9H-purin-6-amine]	> 25000
Nc1ncnc2c1nc(Sc1ccc3c(c1)OC(F)(F)O3)n2CCc1ccccc1Cl [Example 294, 9-[2-(2-Chlorophenyl)ethyl]-8-[(2,2-difluoro-1,3-benzodioxol-5-yl)thio]-9H-purin-6-amine]	> 25000
COc1ccc(CCn2c(Sc3cc4c(cc3Br)OCO4)nc3c(N)ncnc32)cc1OC [Example 296, 8-[(6-Bromo-1,3-benzodioxol-5-yl)thio]-9-[2-(3,4-dimethoxyphenyl)ethyl]-9H-purin-6-amine]	350
COc1cccc(Sc2nc3c(N)ncnc3n2CC(=O)c2ccccc2)c1 [Example 298, 2-{6-Amino-8-[(3-methoxyphenyl)thio]-9H-purin-9-yl}-1-phenylethanone]	> 25000
Nc1ncnc2c1nc(Sc1cc3c(cc1Br)OCO3)n2CCc1ccc(O)cc1 [Example 300, 4-(2-{6-Amino-8-[(6-bromo-1,3-benzodioxol-5-yl)thio]-9H-purin-9-yl}ethyl)phenol]	400
Nc1ncnc2c1nc(Sc1cc3c(cc1Br)OCO3)n2CCc1ccc2ccccc2c1 [Example 302, 8-[(6-Bromo-1,3-benzodioxol-5-yl)thio]-9-[2-(2-naphthyl)ethyl]-9H-purin-6-amine]	> 25000
COc1ccc(C#N)cc1Sc1nc2c(N)ncnc2n1CCc1ccccc1 [Example 304, 3-{[6-Amino-9-(2-phenylethyl)-9H-purin-8-yl]thio}-4-methoxybenzonitrile]	> 25000
COc1ccc(C#N)cc1Sc1nc2c(N)ncnc2n1CCc1ccccc1Cl [Example 306, 3-({6-Amino-9-[2-(2-chlorophenyl)ethyl]-9H-purin-8-yl}thio)-4-methoxybenzonitrile]	> 25000
COc1cccc(CCn2c(Sc3cc4c(cc3Br)OCO4)nc3c(N)ncnc32)c1 [Example 308, 8-[(6-Bromo-1,3-benzodioxol-5-yl)thio]-9-[2-(3-methoxyphenyl)ethyl]-9H-purin-6-amine]	180
COc1ccc(I)c(Sc2nc3c(N)ncnc3n2CCc2ccc(I)cc2)c1 [Example 310, 8-[(2-Iodo-5-methoxyphenyl)thio]-9-[2-(4-iodophenyl)ethyl]-9H-purin-6-amine]	> 25000
COc1ccc(F)cc1Sc1nc2c(N)ncnc2n1CCc1ccccc1 [Example 312, 8-[(5-Fluoro-2-methoxyphenyl)thio]-9-(2-phenylethyl)-9H-purin-6-amine]	> 25000
COc1ccc(C)cc1Sc1nc2c(N)ncnc2n1CCc1ccccc1 [Example 314, 8-[(2-Methoxy-5-methylphenyl)thio]-9-(2-phenylethyl)-9H-purin-6-amine]	6800
COc1ccc(F)cc1Sc1nc2c(N)ncnc2n1CCc1ccccc1Cl [Example 316, 9-[2-(2-Chlorophenyl)ethyl]-8-[(5-fluoro-2-methoxyphenyl)thio]-9H-purin-6-amine]	18000
COc1ccc([N+](=O)[O-])cc1Sc1nc2c(N)ncnc2n1CCc1ccccc1Cl [Example 318, 9-[2-(2-Chlorophenyl)ethyl]-8-[(2-methoxy-5-nitrophenyl)thio]-9H-purin-6-amine]	7000
N#Cc1cc2c(cc1Sc1nc3c(N)ncnc3n1CCc1ccccc1)OCO2 [Example 320, 6-{[6-Amino-9-(2-phenylethyl)-9H-purin-8-yl]thio}-1,3-benzodioxole-5-carbonitrile]	240
COc1ccc(I)c(Sc2nc3c(N)ncnc3n2CCc2ccccc2)c1 [Example 322, 8-[(2-Iodo-5-methoxyphenyl)thio]-9-(2-phenylethyl)-9H-purin-6-amine]	100
COc1ccc(C)cc1Sc1nc2c(N)ncnc2n1CCc1ccccc1Cl [Example 324, 9-[2-(2-Chlorophenyl)ethyl]-8-[(2-methoxy-5-methylphenyl)thio]-9H-purin-6-amine]	2800
N#Cc1cc2c(cc1Sc1nc3c(N)ncnc3n1CCc1ccccc1Cl)OCO2 [Example 326, 6-({6-Amino-9-[2-(2-chlorophenyl)ethyl]-9H-purin-8-yl}thio)-1,3-benzodioxole-5-carbonitrile]	35
Nc1ncnc2c1nc(Sc1cc(OC(F)(F)F)ccc1OC1CCCC1)n2CCc1ccccc1 [Example 328, 8-{[2-(Cyclopentyloxy)-5-(trifluoromethoxy)phenyl]thio}-9-(2-phenylethyl)-9H-purin-6-amine]	> 8000
